Reference: patent US11390629B2, “1,5-disubstituted 1,2,3-triazoles are inhibitors of Rac/Cdc42 GTPases” (UNIVERSITY OF PUERTO RICO, priority 2016, dated 2022)
Values joined by “and” are separate entries in the source; they are usually repeats but may differ in a detail not shown here. Equal values may be shown once. “Also recorded” adds a separate entry of the source. Read-outs that look alike come from different tables or passages of the source.

Tests used:
Rac [1] = test: Rac activation pulldown (p21-binding domain of PAK) and western blot, MDA-MB-231 cells; format: cell-based, human; details: for decrease in Rac activation: 250 nM, 24 h; for inhibition in Rac activity: 250 or 500 nM, 6 h
Rho [2] = test: Rho activation pulldown (Rho binding domain of Rhotekin) and western blot, MDA-MB-231 cells; format: cell-based, human; details: MDA-MB-231, 250 nM; listed as MBQ-167
Procedure: Additionally, Rac, Cdc42, or […] activation was determined, by pulldowns using the P21-binding domain (PBD) of PAK, or Rho binding domain of Rhotekin as described (2, 16). The GTP bound active Rac, Cdc42, or Rho was detected by Western blot (N=3).

GFP-HER2-BM cells = test: Cell viability assay (CellTiter 96 / MTT), GFP-HER2-BM; format: cell-based; details: Homo sapiens, 120 h
Source text: Effect of MBQ-167 on cell survival.

MDA-MB-231 cells [3] = test: Bright field microscopy of cell polarity, rounding and detachment, MDA-MB-231; format: cell-based, human
Procedure: FIGS. 2A, 2B, 2C. Breast cancer cell phenotype following MBQ-167 treatment.
Human breast cancer cells were visualized by bright field microscopy following MBQ-167 treatment. At ≥100 nM, starting at six hours, MBQ-167 induced a loss of polarity in metastatic breast cancer cells. […] On the other hand, non-cancer mammary epithelial MCF10A and epithelial breast cancer MCF-7 cells were resistant to MBQ-167 and remained polarized and attached to each other and the substratum (FIG. 2A).
FIG. 2A; FIG. 2B. […] At ≥100 nM, starting at six hours MBQ-167 induces a loss of polarity and detachment from the substratum in MDA-MB-231 metastatic breast cancer cells but not in MCF-7 non-metastatic human breast cancer cells. 250 nM MBQ-167 results in ˜70% of the cells losing polarity and assuming a rounded phenotype. Higher concentrations of MBQ-167, i.e. 500 nM for 24 h results in a ˜90% loss in cell polarity and detaches from the substratum.

[4] = Liver enzyme assays (ALP, ALT) after necropsy; format: in vivo, nude mice; details: listed as MBQ-167
Source text: . Mammary fatpad tumors were established in nude mice by inoculating 5×10^5 GFP-HER2-BM cells; […]; FIG. 6B, Representative fluorescence micrographs of lungs, spleens, and kidneys from vehicle or MBQ-167 treated mice following necropsy; […]; Following necropsy, livers were harvested, lysed and subjected to FIG. 6D, ALP activity or FIG. 6E, ALT activity assays; N=4, error bars represent ±S.E.M.
The mice from this study were also examined once a week for potential toxicity. […]. At necropsy, livers were harvested, lysed and subjected to liver enzyme assays as a test for potential toxic effects. […]. Frozen stored livers were thawed and homogenized to measure alkaline phosphatase (ALP) and alanine transaminase (ALT) activities using colorimetric assay kits from Abeam and Cayman Chemicals respectively, as per manufacturer's instructions.

PAK1 and PAK4 = test: Western blot of PAK activity, NCI-N87 gastric cancer cells; format: cell-based, human; details: NCI-N87, 250 or 500 nM; listed as MBQ-167
Source text: FIGS. 8A, 8B. The effect of MBQ-167 on survival and PAK activity in NCI-N87 gastric cancer cells.

[5] = test system: p38-MAPK, p42/44 MAPK, Akt; test: Western blot of MAPK and Akt signaling, MDA-MB-231; format: cell-based, human; details: 250 nM, 24 h
Source text: FIGS. 13A, 13B. MAPK and Akt signaling in MDA-MB-231 cells. […] Representative western blots of N=3 are shown.

[6] = test system: c-Myc, Bcl-XL, Bcl-2, BAD; test: Expression of oncogenes and survival proteins, MDA-MB-435 cells; format: cell-based, human; details: 150 nM, 24 h
Source text: Studies from a number of cancer types have shown that Rac/Cdc42/PAK signaling can induce cell survival and evade apoptosis. Therefore, the decreased cell viability and increased apoptosis by MBQ-167, at concentrations that inhibit both Rac and Cdc42, is predicted to be due to dual inhibition of Rac and Cdc42 function.

Rac [7] = test system: Rac
[8] = test system: Saccharomyces cerevisiae (expresses only Cdc42); test: Yeast bud polarity and growth; details: 100 microM
MDA-MB-231 cells [9] = test: Transwell cell migration assay, MDA-MB-231; details: 250 and 500 nM, attached population
Cdc42 = Cdc42 (Homo sapiens, UniProt P60953); test: G-LISA Cdc42 activity, GFP-HER2-BM cells; format: cell-based; parameters: endogenous in cells; host or cells: MDA-MB-231; details: 250 nM, 24 h
[10] = Cell viability assay (CellTiter 96 / MTT), MDA-MB-231; details: human
MDA-MB-231 cells [11] = test: as above
Rho [12] = test: Rho activation pulldown (Rhotekin), GFP-HER2-BM cells; details: 24 h, listed as MBQ-167
[13] = test system: GFP-MDA-MB-231 mammary fat pad tumors; test: Mammary fat pad tumor growth, GFP-MDA-MB-231 cells in SCID mice; details: 50 days

Cdc42, sequence (P60953 whole entry): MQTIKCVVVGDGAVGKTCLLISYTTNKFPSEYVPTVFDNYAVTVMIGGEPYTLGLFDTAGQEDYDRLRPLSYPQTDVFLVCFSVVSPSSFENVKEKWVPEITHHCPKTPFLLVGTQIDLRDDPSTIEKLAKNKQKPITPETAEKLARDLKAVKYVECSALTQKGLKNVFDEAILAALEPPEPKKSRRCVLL

In the case of `CCn1c2ccccc2c2cc(-n3nncc3-c3ccccc3)ccc21` [I-1, 9-ethyl-3-(5-phenyl-1H-1,2,3-triazol-1-yl)-9H-carbazole], the “decrease in Rac activation” value (Rac [1]; attached cells) is reported as about 25%, the “decrease in Rac activation” value (Rac [1]; detached cells) is reported as about 75% and the “inhibition in Rac activity” value (Rac [1]; attached cell population) is reported as 10-20%. For the same compound, the “inhibition in Rac activity” value (Rac [1]; detached population) was 40-50%, the “effect on Rho activation” value (Rho [2]) was “did not affect; also recorded: does not affect; also recorded: without affecting” and the GI50 (GFP-HER2-BM cells) was 150 nM. For the same compound, the “cells losing polarity and assuming a rounded phenotype” value (MDA-MB-231 cells [3]; 250 nM) was about 70%, the “cell rounding / loss of polarity and detachment from the substratum” value (MDA-MB-231 cells [3]; 500 nM, 24 h, listed as MBQ-167) was ~90% and ~95% and the “concentration inducing loss of polarity” value (MDA-MB-231 cells [3]; starting at six hours) was at least 100 nM. The “liver ALT activity” value ([4]; 10 mg/kg BW) was “significantly increased; also recorded: increases”, the “liver ALP activity” value ([4]; 1 and 10 mg/kg BW) was “does not significantly affect” and the “effect on PAK activity (phospho-PAK)” value (PAK1 and PAK4) was “inhibits both PAK1 and PAK4 activities; also recorded: significantly decreases”. For the same compound, the “effect on p38-MAPK, p42/44 MAPK and Akt activities” value [5] was “did not affect”, the “expression of c-Myc, Bcl-XL, Bcl-2” value [6] was “reduced expression” and the “pro-apoptotic protein BAD” value [6] was “concomitant increase”. For the same compound, the “Rac Activity (Active Rac/Total Rac)” value (Rac [7]; 250 nM, 24 h, MCF-7 cells, vehicle = 1.0) was 1.075 ± 0.3, the “effect on Rac activity” value (Rac [7]; MCF-7, 250 nM, listed as MBQ-167) was “insensitive; also recorded: does not affect” and the “effect on yeast bud polarity and growth” value [8] was “inhibited yeast bud polarity and growth”. For the same compound, the “reduction of directed migration” value (MDA-MB-231 cells [9]) was 60-70%, the “effect on Cdc42 activity” value (Cdc42) was “inhibits” and the viability at 24 h, 5 µM ([10]; MDA-MB-231, GFP-HER2-BM, MCF-7 and MCF-10 cells) was about 75%. For the same compound, the viability at 24 h, 0.3 µM ([10]; MDA-MB-231 cells) was 100%, the cell death (MDA-MB-231 cells [11]; 1000 nM, 120 h, all cell types (MDA-MB-231, GFP-HER2-BM, MCF10A)) was about 100% and the GI50 (MDA-MB-231 cells [11]; 120 h, listed as MBQ-167) was 0.11 µM. The GI50 (MDA-MB-231 cells [11]; Homo sapiens, MDA-MB-231, 120 h, 120 h) was about 0.13 µM, the GI50 (MDA-MB-231 cells [11]; Homo sapiens, MDA-MB-231, read-out: GI50 (μM) MDA-MB-231, MDA-MB-231) was 0.128 µM and the “effect on Rho activity” value (Rho [12]) was “did not affect; also recorded: does not affect”. The “inhibition of tumor growth” value ([13]; 1.0 mg/kg BW i.p. 3x a week) was 90%, the “inhibition of tumor growth” value ([13]; 5.0 mg/kg BW i.p. 3x a week) was 95% and the “inhibition of tumor growth” value ([13]; 10 mg/kg BW i.p. 3x a week) was 100%.
